Values after ≈ are worked out from the molar mass of the structure shown.
Assay: not given
Conditions: in words; material disclosed in CN103108859; cited from earlier work

Q: For `CC1(C)c2ccccc2-c2ccc(N(c3ccc4c(c3)C3(c5ccccc5-c5ccccc53)c3ccccc3-4)c3ccccc3-c3ccccc3)cc21`, which solubility is on record?
A: good

Assay: Solubility of the hole transporting material in NMP
Format: physicochemical
Conditions: N-methylpyrrolidone

Q: For `c1ccc(-c2ccc(N(c3ccc(-c4ccccc4)cc3)c3ccc(-c4ccc(N(c5ccc(-c6ccccc6)cc5)c5ccc(-c6ccccc6)cc5)cc4)cc3)cc2)cc1` [Comparative Example 1, reference compound], which “solubility in NMP” value is on record?
A: 1.2 mg/mL (≈ 1.51 mM)

Q: Which “solubility in NMP” value does the source give for `c1ccc(-c2ccc(N(c3ccc(-c4ccccc4)cc3)c3ccc(-c4ccc(N(c5ccc(-c6ccccc6)cc5)c5ccc(-c6ccccc6)cc5)c5c4CCCC5)cc3)cc2)cc1` [Comparative Example 3, reference compound] here?
A: 2.5 mg/mL (≈ 2.95 mM)

Q: With `Cc1cccc(-c2ccc(N(c3ccc(-c4cccc(C)c4)cc3)c3ccc(-c4cc(C)c(N(c5ccc(-c6cccc(C)c6)cc5)c5ccc(-c6cccc(C)c6)cc5)c(C)c4)cc3)cc2)c1` [Example 1] as the compound, how does the “solubility in NMP” value read?
A: 15 mg/mL (≈ 17.1 mM)

Q: With `Cc1cccc(-c2ccc(N(c3ccc(-c4cc(C)c(N(c5ccc(-c6cccc(C)c6)c(C)c5)c5ccc(-c6cccc(C)c6)c(C)c5)c(C)c4)cc3)c3ccc(-c4cccc(C)c4)c(C)c3)cc2C)c1` [Example 2] as the compound, how does the “solubility in NMP” value read?
A: 25 mg/mL (≈ 26.8 mM)

Q: Which “solubility in NMP” value does the source give for `CC(C)c1ccc(-c2ccc(N(c3ccc(-c4ccccc4)cc3)c3ccc(-c4ccc(N(c5ccc(-c6ccccc6)cc5)c5ccc(-c6ccc(C(C)C)cc6)cc5)c(C(C)C)c4)cc3)cc2)cc1` [Example 3] here?
A: 12 mg/mL (≈ 13.1 mM)

Q: Which “solubility in NMP” value does the source give for `Cc1cc(N(c2ccc(-c3ccccc3)cc2)c2ccc(-c3ccc(C(C)C)cc3)cc2)ccc1-c1ccc(N(c2ccc(-c3ccccc3)cc2)c2ccc(-c3ccc(C(C)C)cc3)cc2)cc1` [Example 4] here?
A: 12 mg/mL (≈ 13.5 mM)

Q: With `Cc1ccc(-c2ccc(N(c3ccc(-c4cccc(C)c4)cc3)c3ccc(-c4ccc(N(c5ccc(-c6ccccc6)cc5)c5ccc(-c6ccc(C)cc6)cc5)c5c4CCCC5)cc3)cc2)cc1` [Example 9] as the compound, how does the “solubility in NMP” value read?
A: 35 mg/mL (≈ 39.4 mM)

Q: For `Cc1cccc(-c2ccc(N(c3ccc(-c4cccc5c4CCCC5)cc3)c3ccc(-c4ccc(N(c5ccc(-c6cccc(C)c6)cc5)c5ccc(-c6cccc7c6CCCC7)cc5)c5c4CCCC5)cc3)cc2)c1` [Example 10], which “solubility in NMP” value is on record?
A: 19 mg/mL (≈ 19.3 mM)

Q: Which “solubility in NMP” value does the source give for `Cc1cc(N(c2ccc(-c3ccccc3)cc2)c2ccc(-c3cccc4c3CCCC4)cc2)ccc1-c1ccc(N(c2ccc(-c3ccccc3)cc2)c2ccc(-c3cccc4c3CCCC4)cc2)cc1` [Example 11] here?
A: 15 mg/mL (≈ 16.4 mM)

Q: With `Cc1ccccc1-c1ccc(N(c2ccc(-c3ccccc3)cc2)c2ccc(-c3ccc(N(c4ccc(-c5ccccc5)cc4)c4ccc(-c5ccccc5C)c5c4CCCC5)c4c3CCCC4)cc2)c2c1CCCC2` [Example 12] as the compound, how does the “solubility in NMP” value read?
A: 21 mg/mL (≈ 21.4 mM)

— patent US10700298B2, “OLED display panel and electronic device comprising the same” (SHANGHAI TIANMA AM-OLED CO., LTD., priority 2016, dated 2020)
